Assay results from US9321760B2 (Merck Patent GmbH, priority 2011, dated 2016).

These compounds were tested against P70S6K (T412E mutant) (Homo sapiens (Human), UniProt P23443, T412E) (assay: P70S6K enzyme assay). Conditions: 3 nM P70S6K T412E mutant, 24 μM ATP, 1 μM FITC-AHA-AKRRRLSSLRA-OH substrate peptide, 90 min at 25° C.
Format: biochemical
Method in brief: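 P70S6K T412E mutant (3 nM) with 24 μM ATP and 1 μM FITC-labelled S6-derived peptide in Hepes pH 7.5, MgCl2, DTT, Brij buffer; 90 min at 25° C, stopped with EDTA. Phosphorylated product and substrate peptides separated by microfluidic mobility shift; IC50 values derived.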

Sequence of P70S6K (T412E mutant) (P23443 whole entry T412E): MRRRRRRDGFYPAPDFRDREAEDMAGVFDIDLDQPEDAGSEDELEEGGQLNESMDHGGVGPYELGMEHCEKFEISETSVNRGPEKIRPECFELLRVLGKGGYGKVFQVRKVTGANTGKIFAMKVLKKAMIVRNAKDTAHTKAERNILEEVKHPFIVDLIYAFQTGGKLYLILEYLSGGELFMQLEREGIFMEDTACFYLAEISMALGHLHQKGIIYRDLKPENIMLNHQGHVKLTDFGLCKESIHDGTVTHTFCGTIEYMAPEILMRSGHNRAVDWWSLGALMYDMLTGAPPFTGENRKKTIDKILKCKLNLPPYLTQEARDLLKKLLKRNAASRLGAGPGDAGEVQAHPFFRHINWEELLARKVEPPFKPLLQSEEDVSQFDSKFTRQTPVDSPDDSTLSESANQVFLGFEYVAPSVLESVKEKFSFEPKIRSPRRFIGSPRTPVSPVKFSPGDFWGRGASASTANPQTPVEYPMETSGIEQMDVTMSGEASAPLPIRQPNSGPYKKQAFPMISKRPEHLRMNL

Point of comparison: `Cn1ccc(-c2c(N)ncnc2N2CCN(C(CN)c3ccc(C(F)(F)F)cc3)CC2)n1` (stereo not drawn) [Example 43, 6-{4-[2-Amino-1-(4-trifluoromethyl-phenyl)-ethyl]-piperazin-1-yl}-5-(1-methyl-1H-pyrazol-3-yl)-pyrimidin-4-ylamine], IC50 98 nM. Against it:
- Nc1ncnc(N2CCN(C(CN3CCC3)c3cccc(F)c3)CC2)c1-c1cn[nH]c1 (single isomer, unassigned) [Example 84, 6-{4-[2-Azetidin-1-yl-1-(3-fluoro-phenyl)-ethyl]-piperazin-1-yl}-5-(1H-pyrazol-4-yl)-pyrimidin-4-ylamine] — 150-fold higher, 15000 nM
- N#CC(c1cccc(C(F)(F)F)c1)N1CCN(c2ncnc(N)c2Br)CC1 (stereo not drawn) [Example 166, [4-(6-Amino-5-bromo-pyrimidin-4-yl)-piperazin-1-yl]-(3-trifluoromethyl-phenyl)-acetonitrile] — 62-fold higher, 6100 nM
- Nc1ncnc(N2CCN(Cc3ccc(C(F)(F)F)cc3)CC2)c1-c1ccc(F)cc1 [Example 13, 5-(4-Fluoro-phenyl)-6-[4-(4-trifluoromethyl-benzyl)-piperazin-1-yl]-pyrimidin-4-ylamine] — 14-fold lower, 7.2 nM
- NCC(c1ccc(Cl)c(F)c1)N1CCN(c2ncnc(N)c2-c2cn[nH]c2)CC1 (stereo not drawn) [Example 187, 6-(4-(2-amino-1-(4-chloro-3-fluorophenyl)ethyl)piperazin-1-yl)-5-(1H-pyrazol-4-yl)pyrimidin-4-amine] — 16-fold lower, 6.1 nM
- COc1ccc(C(C#N)N2CCN(c3ncnc(N)c3-c3ccc(F)cc3)CC2)cn1 (stereo not drawn) [Example 182, 2-(4-(6-amino-5-(4-fluorophenyl)pyrimidin-4-yl)piperazin-1-yl)-2-(6-methoxypyridin-3-yl)acetonitrile] — 2.2-fold higher, 220 nM
- NCC(c1ccccc1)N1CCN(c2ncnc(N)c2Br)CC1 (stereo not drawn) [Example 5, 6-[4-(2-Amino-1-phenyl-ethyl)-piperazin-1-yl]-5-bromo-pyrimidin-4-ylamine] — 3.4-fold higher, 330 nM
- Nc1ncnc(N2CCN(C(CN3CCC3)c3ccc(F)c(OC(F)(F)F)c3)CC2)c1-c1cn[nH]c1 (stereo not drawn) [Example 114, 6-{4-[2-Azetidin-1-yl-1-(4-fluoro-3-trifluoromethoxy-phenyl)-ethyl]-piperazin-1-yl}-5-(1H-pyrazol-4-yl)-pyrimidin-4-ylamine] — 34-fold higher, 3300 nM
- Nc1ncnc(N2CCN(C(CN3CCCC3)c3ccc(F)cc3)CC2)c1-c1ccc(F)cc1 (stereo in doubt) [Example 83, (S)-5-(4-Fluorophenyl)-6{4-[1-(4-fluorophenyl)-2-pyrrolidin-1-yl-ethyl]-piperazin-1-yl}-pyrimidin-4-ylamine] — 10-fold higher, 1000 nM
- Cc1ccc([C@H](CCO)NC(=O)C2(N)CCN(c3ncnc(N)c3C(N)=O)CC2)cc1 [Example 232, 4-Amino-6-[4-amino-4-((S)-3-hydroxy-1-p-tolyl-propylcarbamoyl)-piperidin-1-yl]-pyrimidine-5-carboxylic acid amide] — 230-fold higher, 23000 nM
- Nc1ncnc(N2CCN(C(CN3CCCCC3)c3cccc(C(F)(F)F)c3)CC2)c1Br (stereo not drawn) [Example 70, 5-Bromo-6{4-[1-(3-trifluoromethyl-phenyl)-2-piperidin-1-yl-ethyl]-piperazin-1-yl}-pyrimidin-4-ylamine] — higher, > 1000 nM
- Nc1ncnc(N2CCC(N)(CNC(=O)c3ccc(F)cc3F)CC2)c1-c1ccc(F)cc1 [Example 208, N-{4-Amino-1-[6-amino-5-(4-fluoro-phenyl)-pyrimidin-4-yl]-piperidin-4-ylmethyl}-2,4-difluoro-benzamide] — 2.1-fold lower, 46 nM
- N#Cc1c(N)ncnc1N1CCC(N)(C(=O)N[C@@H](CCO)c2ccccc2)CC1 [Example 226, 4-Amino-1-(6-amino-5-cyano-pyrimidin-4-yl)-piperidine-4-carboxylic acid ((S)-3-hydroxy-1-phenyl-propyl)-amide] — 8.4-fold higher, 820 nM
- COc1ccc(C(CN2CCC2)N2CCN(c3ncnc(N)c3-c3ccc(F)cc3)CC2)cc1F (stereo not drawn) [Example 92, 6-{4-[2-Azetidin-1-yl-1-(3-fluoro-4-methoxy-phenyl)-ethyl]-piperazin-1-yl}-5-(4-fluoro-phenyl)-pyrimidin-4-ylamine] — 3.1-fold higher, 300 nM
- NCC(c1ccc(C(F)(F)F)cc1F)N1CCN(c2ncnc(N)c2-c2ccc(F)cc2)CC1 (stereo not drawn) [Example 170, 6-{4-[2-Amino-1-(2-fluoro-4-trifluoromethyl-phenyl)-ethyl]-piperazin-1-yl}-5-(4-fluoro-phenyl)-pyrimidin-4-ylamine] — 8.2-fold lower, 12 nM
- CN(C)CC(c1ccc(C(F)(F)F)cc1)N1CCN(c2ncnc(N)c2-c2ccc(C(C)(C)O)cc2)CC1 (stereo not drawn) [Example 22, 2-(4-(4-amino-6-(4-(2-(dimethylamino)-1-(4-(trifluoromethyl)phenyl)ethyl)-piperazin-1-yl)pyrimidin-5-yl)phenyl)propan-2-ol] — 4.9-fold lower, 20 nM
- Nc1ncnc(N2CCC(N)(CNC(=O)c3ccc(F)cc3F)C2)c1-c1ccccc1 (stereo not drawn) [Example 203, N-[3-Amino-1-(6-amino-5-phenyl-pyrimidin-4-yl)-pyrrolidin-3-ylmethyl]-2,4-difluoro-benzamide] — 18-fold lower, 5.3 nM
- CCc1c(N)ncnc1N1CCC(N)(C(=O)N[C@@H](CCO)c2ccc(Cl)cc2)CC1 [Example 214, 4-Amino-1-(6-amino-5-ethyl-pyrimidin-4-yl)-piperidine-4-carboxylic acid [(S)-1-(4-chloro-phenyl)-3-hydroxy-propyl]-amide] — 4.6-fold higher, 450 nM
- CN(C)C[C@H](c1ccc(C(F)(F)F)cc1)N1CCN(c2ncnc(N)c2-c2ccc(F)cc2)CC1 [Example 16, (S)-6-(4-(2-(dimethylamino)-1-(4-(trifluoromethyl)phenyl)ethyl)piperazin-1-yl)-5-(4-fluorophenyl)pyrimidin-4-amine] — 20-fold lower, 4.9 nM
- Nc1ncnc(N2CCC(N)(C(=O)N[C@@H](CCO)c3ccc(F)cc3)CC2)c1Cl [Example 236, 4-Amino-1-(6-amino-5-chloro-pyrimidin-4-yl)-piperidine-4-carboxylic acid [(S)-1-(4-fluoro-phenyl)-3-hydroxy-propyl]-amide] — 9.2-fold higher, 900 nM
- N#Cc1ccc(C(CN2CCC2)N2CCN(c3ncnc(N)c3-c3ccc(F)cc3)CC2)cc1 (stereo not drawn) [Example 106, 4-(1-{4-[6-Amino-5-(4-fluoro-phenyl)-pyrimidin-4-yl]-piperazin-1-yl}-2-azetidin-1-yl-ethyl)-benzonitrile] — 3.3-fold higher, 320 nM
- NCC(c1cc(C(F)(F)F)ccc1F)N1CCN(c2ncnc(N)c2-c2ccc(F)cc2)CC1 (stereo not drawn) [Example 192, 6-{4-[2-Amino-1-(2-fluoro-5-trifluoromethyl-phenyl)-ethyl]-piperazin-1-yl}-5-(4-fluoro-phenyl)-pyrimidin-4-ylamine] — 7.5-fold lower, 13 nM
- Nc1cc(N2CCN(C(CN3CCCC3)c3cccc(C(F)(F)F)c3)CC2)ncn1 (stereo not drawn) [Example 73, 6-{4-[1-(3-trifluoromethyl-phenyl)-2-pyrrolidin-1-yl-ethyl]-piperazin-1-yl}-pyrimidin-4-ylamine] — higher, > 1000 nM
- N#Cc1ccc([C@@H](CN2CCC2)N2CCN(c3ncnc(N)c3-c3cn[nH]c3)CC2)cc1 [Example 88, 4-((S)-1-{4-[6-Amino-5-(1H-pyrazol-4-yl)-pyrimidin-4-yl]-piperazin-1-yl}-2-azetidin-1-yl-ethyl)-benzonitrile] — 68-fold higher, 6700 nM
- Nc1ncnc(N2CCN(C(CN3CCC3)c3ccc(-n4ccnc4)cc3)CC2)c1-c1ccc(F)cc1 (stereo not drawn) [Example 116, 6-{4-[2-Azetidin-1-yl-1-(4-imidazol-1-yl-phenyl)-ethyl]-piperazin-1-yl}-5-(4-fluoro-phenyl)-pyrimidin-4-ylamine] — 3-fold higher, 290 nM
- C[C@H](NC(=O)C1(N)CCN(c2ncnc(N)c2-c2cn[nH]c2)CC1)c1ccc(Cl)cc1 [Example 224, 4-Amino-1-[6-amino-5-(1H-pyrazol-4-yl)-pyrimidin-4-yl]-piperidine-4-carboxylic acid [(S)-1-(4-chloro-phenyl)-ethyl]-amide] — within 1.5-fold, 87 nM
- Cc1ccc(C(CN2CCC2)N2CCN(c3ncnc(N)c3-c3cn[nH]c3)CC2)c(F)c1F (stereo not drawn) [Example 100, 6-{4-[2-Azetidin-1-yl-1-(2,3-difluoro-4-methyl-phenyl)-ethyl]-piperazin-1-yl}-5-(1H-pyrazol-4-yl)-pyrimidin-4-ylamine] — 9.2-fold higher, 900 nM
- NCC(c1ccc(C(F)(F)F)nc1)N1CCN(c2ncnc(N)c2-c2ccc(F)cc2)CC1 (stereo not drawn) [Example 194, 6-{4-[2-Amino-1-(6-trifluoromethyl-pyridin-3-yl)-ethyl]-piperazin-1-yl}-5-(4-fluoro-phenyl)-pyrimidin-4-ylamine] — 10-fold lower, 9.8 nM
- Nc1ncnc(N2CCC(C(NC3CCCC3)c3ccc(F)cc3)CC2)c1-c1ccc(F)cc1 (stereo not drawn) [Example 145, 6-(4-((cyclopentylamino)(4-fluorophenyl)methyl)piperidin-1-yl)-5-(4-fluorophenyl)pyrimidin-4-amine] — within 1.5-fold, 120 nM
- N#CC(C1CCCCC1)N1CCN(c2ncnc(N)c2-c2ccc(F)cc2)CC1 (stereo not drawn) [Example 191, {4-[6-Amino-5-(4-fluoro-phenyl)-pyrimidin-4-yl]-piperazin-1-yl}-cyclohexyl-acetonitrile] — 2-fold higher, 200 nM
- N#Cc1c(N)ncnc1N1CCC(N)(C(=O)N[C@@H](CCO)c2ccc(F)cc2)CC1 [Example 243, 4-Amino-1-(6-amino-5-cyano-pyrimidin-4-yl)-piperidine-4-carboxylic acid [(S)-1-(4-fluoro-phenyl)-3-hydroxy-propyl]-amide] — 4-fold higher, 390 nM
- CCOC(=O)Cn1cc(-c2c(N)ncnc2N2CCN(C(CN3CCC3)c3ccc4c(c3)CCCC4)CC2)cn1 (stereo not drawn) [Example 119, [4-(4-Amino-6-{4-[2-azetidin-1-yl-1-(5,6,7,8-tetrahydro-naphthalen-2-yl)-ethyl]-piperazin-1-yl}-pyrimidin-5-yl)-pyrazol-1-yl]-acetic acid ethyl ester] — 220-fold higher, 22000 nM
- Nc1ncnc(N2CCC(N)(C(=O)N[C@@H](CCO)c3ccc(Cl)cc3)CC2)c1Cl [Example 235, 4-Amino-1-(6-amino-5-chloro-pyrimidin-4-yl)-piperidine-4-carboxylic acid [(S)-1-(4-chloro-phenyl)-3-hydroxy-propyl]-amide] — 2.6-fold higher, 250 nM
